Activity calls are given as the source filed them. Rule as the data show it, for most assays here: actives have a measured AC50 and inactives only a lower limit.
How the values were obtained:
[1] = inhibitors of EBV LMP1 NF-kappaB signaling – cell-based, luciferase reporter, luminescence, dry powder, set 2, dose response (AID 624376); type: functional
[2] = viability loss in HEK293 kidney cells – cell-based, cherry-picks, set 5, cytotoxicity control, dose response (AID 1053117); type: functional
[3] = viability loss in A549 lung cancer cells – cell-based, cherry-picks, […], cytotoxicity control, dose response (AID 1053119); type: functional
[4] = YAP1 overexpression rescue of CTGF inhibition – DLD1 cells, RT-qPCR, cherry-pick, mechanism study for YAP1 pathway inhibitor project, dose response (AID 1053127); type: functional, cell-based; settings: DLD-1
[5] = PAX8-dependent cell viability loss – plate reader, dry powder, dose response (AID 743049); type: functional, cell-based
[6] = COV434 cell viability loss – plate reader, dry powder, SA7, cytotoxicity control for PAX8 inhibitor project, dose response (AID 743145); type: functional, cell-based
Paired box protein Pax-8 = Paired box protein Pax-8 (Homo sapiens, UniProt Q06710); assay: PAX8 transcriptional activity inhibition in RMG-I – RMG-I cells, luciferase, cherry-pick, dose response (AID 687027); type: functional, cell-based;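 also: luciferase reporter driven by Pax8 target thyroperoxidase promoter measured by SteadyGlo luminescence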
[7] = PAX5 cellular inhibition readout – cell-based, plate reader, dry powder samples, selectivity assay for PAX8 inhibitor project, dose response (AID 743047); type: functional;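 also: HEK293 cells carrying a Pax5 driven CD19 promoter luciferase reporter; potency of inhibitors that lower reporter luminescence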
[8] = OV-90 cell viability loss – plate reader, dry powder, SA8, PAX8 inhibitor project, dose response (AID 743149); type: functional, cell-based
[9] = target: NAD-dependent protein deacylase sirtuin-5, mitochondrial (Homo sapiens, UniProt Q9NXA8); assay: sirtuin-5 deacylation blockers, concentration series – biochemical, fluorescence imaging, cherry-pick, set 5, dose response (AID 720591);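 also: desuccinylation of succinyl peptide AMC substrate read as fluorescence after trypsin release; potency of inhibitors that lower fluorescence and may act on trypsin instead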
[10] = HEK293 Cytotoxicity Assay Measured in Cell-Based System Using Plate Reader - 7071-01_Inhibitor_Dose_CherryPick_Activity_Set2.; type: functional
HEK293 = assay: viability loss in HEK293T cells – cell-based, ATP luminescence, cherry-pick samples, cytotoxicity control, dose response (AID 687005); type: functional; settings: Homo sapiens;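 also: cells exposed to compound for 48 hours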
[11] = liver cell line viability loss – HepG2, luminescence plate reader, powder samples, set 2, cytotoxicity control, dose response (AID 651860); type: functional, cell-based
[12] = target: G-protein coupled receptor 183 (Homo sapiens, UniProt P32249); assay: SAR confirmation of small molecule antagonists of the EBI2 receptor via a luminescent beta-arrestin assa.; type: functional
[13] = toxicity toward immortalized ovarian surface epithelium – cell-based, plate reader, dry powder samples, cytotoxicity control for PAX8 inhibitor project, dose response (AID 743045); type: functional
cells = settings: HEK293;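 also: cells exposed to compound for 48 hours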
[14] = viability loss in Vero cells – cytotoxicity control for Vif-APOBEC3G degradation inhibitor project, dose response (AID 1117358); type: functional; settings: Vero
[15] = IC50 of insulin release inhibition, rat insulinoma INS-1E line, 5 mM glucose, cell-based (AID 1117331); type: functional
[16] = Potency on glucagon-like peptide 1 release, dose-response in NCI-H716 cell line, half maximal inhibitory concentration (AID 1117344); type: functional, cell-based
[17] = glucagon-like peptide-1 release potency in STC-1, concentration-response, half-maximal inhibitory concentration in the STC-1 line (AID 1117345); type: functional, cell-based

Paired box protein Pax-8, sequence (Q06710 whole entry): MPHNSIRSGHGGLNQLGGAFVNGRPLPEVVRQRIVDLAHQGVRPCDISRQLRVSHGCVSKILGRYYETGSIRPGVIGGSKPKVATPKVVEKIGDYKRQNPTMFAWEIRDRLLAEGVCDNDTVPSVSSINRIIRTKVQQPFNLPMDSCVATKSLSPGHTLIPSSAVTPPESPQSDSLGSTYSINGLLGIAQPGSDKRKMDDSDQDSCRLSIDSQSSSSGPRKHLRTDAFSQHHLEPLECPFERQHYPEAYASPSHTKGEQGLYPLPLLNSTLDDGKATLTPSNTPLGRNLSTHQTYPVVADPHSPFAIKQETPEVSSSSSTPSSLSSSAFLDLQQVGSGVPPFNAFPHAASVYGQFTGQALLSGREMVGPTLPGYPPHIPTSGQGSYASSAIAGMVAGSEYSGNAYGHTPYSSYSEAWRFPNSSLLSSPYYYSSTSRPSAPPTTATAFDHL
G-protein coupled receptor 183, sequence (P32249 whole entry): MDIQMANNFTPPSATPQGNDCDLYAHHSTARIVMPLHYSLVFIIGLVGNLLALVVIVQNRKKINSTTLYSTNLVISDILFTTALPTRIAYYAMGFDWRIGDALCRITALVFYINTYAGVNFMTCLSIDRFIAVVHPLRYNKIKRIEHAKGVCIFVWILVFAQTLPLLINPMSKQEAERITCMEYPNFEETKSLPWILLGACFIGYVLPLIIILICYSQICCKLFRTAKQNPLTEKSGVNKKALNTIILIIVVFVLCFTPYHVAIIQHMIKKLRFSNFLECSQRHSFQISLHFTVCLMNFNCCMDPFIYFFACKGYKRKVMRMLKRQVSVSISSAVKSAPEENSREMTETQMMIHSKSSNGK
NAD-dependent protein deacylase sirtuin-5, mitochondrial, sequence (Q9NXA8 whole entry): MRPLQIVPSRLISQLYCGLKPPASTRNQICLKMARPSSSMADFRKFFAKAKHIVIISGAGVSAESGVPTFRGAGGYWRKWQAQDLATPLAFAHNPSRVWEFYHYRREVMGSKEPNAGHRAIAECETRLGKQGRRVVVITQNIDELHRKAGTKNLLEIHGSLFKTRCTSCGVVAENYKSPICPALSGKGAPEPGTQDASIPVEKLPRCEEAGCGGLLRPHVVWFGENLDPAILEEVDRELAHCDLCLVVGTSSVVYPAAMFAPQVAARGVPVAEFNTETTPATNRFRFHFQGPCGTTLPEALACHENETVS

Q: With CC(C)(C)[S@@+]([O-])N1Cc2cc(C(=O)NCc3ccccc3F)nc(-c3cccc(-c4ccncc4)c3)c2[C@H]1CCO as the compound, how does the AbsAC35 [1] read?
A: 50.48 µM

Q: What about the AC50 [2] of the same compound?
A: > 52 µM (inactive)

Q: What about the AC50 [3] of the same compound?
A: 32.2 µM (active)

Q: Which AC50 [4] does the source give for O=C(Cc1ccncc1)N1CCCCN2[C@H](CO)[C@@H](c3ccc(C#Cc4ccccc4F)cc3)[C@@H]2C1 here?
A: 24.8 µM (active)

Q: For N#C[C@@H]1[C@@H](c2ccc(-c3cccc(F)c3)cc2)[C@H](CO)N1C(=O)NC1CCCC1, which AC50 [5] is on record?
A: 39.6 µM (active)

Q: What about the AC50 [6] of the same compound?
A: 65.3 µM (active)

Q: What about the AC50 (Paired box protein Pax-8) of the same compound?
A: 22.2 µM (active)

Q: What about the AC50 [7] of the same compound?
A: 55.5 µM (active)

Q: And the AC50 [8]?
A: > 70 µM (inactive)

Q: With C[C@@H]1CN([C@@H](C)CO)C(=O)c2cc(Br)cnc2O[C@H]1CN(C)Cc1cccnc1 as the compound, how does the AC50 [9] read?
A: > 30 µM (inactive)

Q: With CC(C)N1C(=O)C2(OCCCO2)c2cc(Br)ccc21 as the compound, how does the AC50 [10] read?
A: 13 µM (active)

Q: What about the AC50 (HEK293) of the same compound?
A: 13 µM (active)

Q: For O=C(O)C1CCCCC1C(=O)Nc1ccccc1CN1C(=O)c2ccccc2C1=O (centres undefined), which AC50 [11] is on record?
A: > 52 µM (inactive)

Q: With O=C(/C=C/c1ccc(Br)cc1)N1CCN(Cc2ccc(Cl)c(Cl)c2)CC1 as the compound, how does the IC50 [12] read?
A: 0.00172 µM (active)

Q: What does the source list for CC1(C)CC(=O)c2sc(NC(=O)CCS(=O)(=O)c3ccccc3)nc2C1?
A: AC50 [5]: 11.9 µM (active); AC50 [6]: 22.9 µM (active); AC50 (Paired box protein Pax-8): 3.16 µM (active); AC50 [13]: 69.9 µM (active); AC50 [8]: 86.7 µM (active)

Q: With CC(C)CCN(CCC(C)C)CC(O)Cn1c2ccccc2c(=O)c2ccccc21 (centres undefined) as the compound, how does the AC50 (cells) read?
A: > 52 µM (inactive)

Q: Which CC50 [14] does the source give for N=c1sccn1CC(=O)Nc1ccc2c(c1)CCC2 here?
A: > 40 µM (active)

Q: With O=C(O)C1CCC1 as the compound, how does the IC50 [15] read?
A: > 33.3 µM (inactive)

Q: What about the IC50 [16] of the same compound?
A: > 40 µM (inactive)

Q: And the IC50 [17]?
A: > 40 µM (inactive)

— ChEMBL document CHEMBL1201862, “PubChem BioAssay data set” (2004)
